Results: ChEMBL document CHEMBL1821607, “N-Arylalkyl-2-azaadamantanes as cage-expanded polycarbocyclic sigma (σ) receptor ligands” (Bioorg Med Chem Lett, 2011)

What was measured:
[1] = biological target: T1, Alpha-2C adrenergic receptor (Homo sapiens) (UniProt P18825); experiment: Inhibition of alpha-2C adrenergic receptor at 10 uM by NIMH PDSP
T1 sequence (whole entry): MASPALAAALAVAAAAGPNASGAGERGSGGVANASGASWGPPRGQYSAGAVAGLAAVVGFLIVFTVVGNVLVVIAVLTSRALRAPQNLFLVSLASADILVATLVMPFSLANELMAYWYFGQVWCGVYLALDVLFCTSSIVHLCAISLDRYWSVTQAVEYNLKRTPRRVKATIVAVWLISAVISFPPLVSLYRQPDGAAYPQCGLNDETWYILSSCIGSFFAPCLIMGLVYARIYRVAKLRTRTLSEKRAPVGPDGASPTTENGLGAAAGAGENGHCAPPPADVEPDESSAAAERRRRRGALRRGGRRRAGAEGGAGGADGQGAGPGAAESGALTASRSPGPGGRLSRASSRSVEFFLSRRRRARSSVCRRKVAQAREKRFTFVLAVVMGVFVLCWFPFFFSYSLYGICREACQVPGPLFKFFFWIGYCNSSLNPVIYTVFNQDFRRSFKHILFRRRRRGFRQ

[2] = biological target: Sodium-dependent serotonin transporter (Homo sapiens) (UniProt P31645); experiment: Inhibition of SERT at 10 uM by NIMH PDSP
Chain of Sodium-dependent serotonin transporter (Homo sapiens) (P31645 whole entry, looked up): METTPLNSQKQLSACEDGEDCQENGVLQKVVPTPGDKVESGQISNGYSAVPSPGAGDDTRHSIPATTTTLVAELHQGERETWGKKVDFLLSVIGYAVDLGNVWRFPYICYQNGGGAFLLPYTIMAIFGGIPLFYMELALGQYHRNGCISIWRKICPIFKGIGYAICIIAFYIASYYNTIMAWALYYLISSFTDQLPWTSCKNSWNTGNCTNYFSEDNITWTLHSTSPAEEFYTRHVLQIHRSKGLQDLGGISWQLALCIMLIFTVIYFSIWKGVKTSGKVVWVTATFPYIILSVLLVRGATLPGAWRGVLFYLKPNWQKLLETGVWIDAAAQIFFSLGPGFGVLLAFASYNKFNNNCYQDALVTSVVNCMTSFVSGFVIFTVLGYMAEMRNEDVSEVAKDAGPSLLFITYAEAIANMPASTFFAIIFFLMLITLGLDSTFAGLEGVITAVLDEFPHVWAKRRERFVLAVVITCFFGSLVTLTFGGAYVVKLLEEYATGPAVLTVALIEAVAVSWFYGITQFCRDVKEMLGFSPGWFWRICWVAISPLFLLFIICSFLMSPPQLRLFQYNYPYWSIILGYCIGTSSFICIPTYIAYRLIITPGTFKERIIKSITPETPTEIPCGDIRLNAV

D(1A) dopamine receptor = D(1A) dopamine receptor (Homo sapiens, UniProt P21728); experiment: Inhibition of D1 dopamine receptor at 10 uM by NIMH PDSP
Chain of D(1A) dopamine receptor (P21728 whole entry): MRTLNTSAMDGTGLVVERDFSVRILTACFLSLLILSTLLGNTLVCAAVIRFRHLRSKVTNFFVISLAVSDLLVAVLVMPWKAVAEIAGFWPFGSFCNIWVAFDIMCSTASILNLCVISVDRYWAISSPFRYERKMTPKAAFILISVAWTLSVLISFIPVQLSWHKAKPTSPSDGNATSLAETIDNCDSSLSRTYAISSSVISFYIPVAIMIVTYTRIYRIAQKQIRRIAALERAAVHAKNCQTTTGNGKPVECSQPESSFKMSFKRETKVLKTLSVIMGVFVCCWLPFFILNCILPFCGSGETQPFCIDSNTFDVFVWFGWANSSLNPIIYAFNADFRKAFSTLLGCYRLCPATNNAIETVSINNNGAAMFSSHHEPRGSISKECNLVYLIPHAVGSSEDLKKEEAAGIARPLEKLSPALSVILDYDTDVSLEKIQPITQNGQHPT

[3] = biological target: D(1B) dopamine receptor (Homo sapiens) (UniProt P21918); experiment: Inhibition of D5 dopamine receptor at 10 uM by NIMH PDSP
Chain of D(1B) dopamine receptor (Homo sapiens) (P21918 whole entry): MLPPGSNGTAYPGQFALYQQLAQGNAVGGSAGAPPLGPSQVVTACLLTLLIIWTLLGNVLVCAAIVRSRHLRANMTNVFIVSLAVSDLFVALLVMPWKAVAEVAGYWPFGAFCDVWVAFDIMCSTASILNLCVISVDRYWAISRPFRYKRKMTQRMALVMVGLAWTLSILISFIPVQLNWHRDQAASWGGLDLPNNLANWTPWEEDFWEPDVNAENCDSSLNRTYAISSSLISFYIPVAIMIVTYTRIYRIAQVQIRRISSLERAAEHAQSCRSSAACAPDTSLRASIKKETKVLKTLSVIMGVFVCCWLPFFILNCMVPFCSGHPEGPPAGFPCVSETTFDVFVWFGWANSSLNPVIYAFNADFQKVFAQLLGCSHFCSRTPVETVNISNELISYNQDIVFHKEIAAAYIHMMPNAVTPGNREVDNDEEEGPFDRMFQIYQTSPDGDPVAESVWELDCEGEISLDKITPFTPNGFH

[4] = biological target: Delta-type opioid receptor (Homo sapiens) (UniProt P41143); experiment: Inhibition of delta opioid receptor at 10 uM by NIMH PDSP
[5] = biological target: T2, D(4) dopamine receptor (Homo sapiens) (UniProt P21917); experiment: Inhibition of D4 dopamine receptor at 10 uM by NIMH PDSP
T2 sequence (whole entry): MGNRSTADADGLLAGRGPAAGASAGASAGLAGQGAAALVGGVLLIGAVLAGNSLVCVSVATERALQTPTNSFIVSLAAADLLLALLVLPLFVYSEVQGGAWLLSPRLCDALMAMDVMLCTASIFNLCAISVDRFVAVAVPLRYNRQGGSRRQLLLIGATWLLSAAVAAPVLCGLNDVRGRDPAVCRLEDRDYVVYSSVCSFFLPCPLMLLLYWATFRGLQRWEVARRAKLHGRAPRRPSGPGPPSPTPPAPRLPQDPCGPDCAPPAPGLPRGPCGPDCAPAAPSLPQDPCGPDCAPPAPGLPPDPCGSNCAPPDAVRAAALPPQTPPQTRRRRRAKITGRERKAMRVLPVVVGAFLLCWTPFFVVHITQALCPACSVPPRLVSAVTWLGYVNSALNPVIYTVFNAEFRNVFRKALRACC

[6] = biological target: 5-hydroxytryptamine receptor 7 (Homo sapiens) (UniProt P34969); experiment: Inhibition of 5-HT7 receptor at 10 uM by NIMH PDSP
Chain of 5-hydroxytryptamine receptor 7 (Homo sapiens) (P34969 whole entry): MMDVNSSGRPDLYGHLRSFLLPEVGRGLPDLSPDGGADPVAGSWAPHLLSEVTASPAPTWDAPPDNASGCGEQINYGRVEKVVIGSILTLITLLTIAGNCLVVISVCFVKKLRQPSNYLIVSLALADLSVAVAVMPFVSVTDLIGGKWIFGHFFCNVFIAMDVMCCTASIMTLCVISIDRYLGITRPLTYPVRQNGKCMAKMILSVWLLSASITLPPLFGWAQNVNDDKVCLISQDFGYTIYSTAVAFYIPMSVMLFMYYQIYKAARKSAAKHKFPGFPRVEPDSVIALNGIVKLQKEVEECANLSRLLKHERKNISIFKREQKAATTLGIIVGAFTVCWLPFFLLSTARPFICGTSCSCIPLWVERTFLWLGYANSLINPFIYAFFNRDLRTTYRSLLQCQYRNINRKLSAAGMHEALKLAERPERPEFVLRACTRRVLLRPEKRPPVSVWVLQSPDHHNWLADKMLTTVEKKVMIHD

[7] = biological target: T3, Alpha-1B adrenergic receptor (Homo sapiens) (UniProt P35368); experiment: Inhibition of alpha-1B adrenergic receptor at 10 uM by NIMH PDSP
T3 sequence (whole entry): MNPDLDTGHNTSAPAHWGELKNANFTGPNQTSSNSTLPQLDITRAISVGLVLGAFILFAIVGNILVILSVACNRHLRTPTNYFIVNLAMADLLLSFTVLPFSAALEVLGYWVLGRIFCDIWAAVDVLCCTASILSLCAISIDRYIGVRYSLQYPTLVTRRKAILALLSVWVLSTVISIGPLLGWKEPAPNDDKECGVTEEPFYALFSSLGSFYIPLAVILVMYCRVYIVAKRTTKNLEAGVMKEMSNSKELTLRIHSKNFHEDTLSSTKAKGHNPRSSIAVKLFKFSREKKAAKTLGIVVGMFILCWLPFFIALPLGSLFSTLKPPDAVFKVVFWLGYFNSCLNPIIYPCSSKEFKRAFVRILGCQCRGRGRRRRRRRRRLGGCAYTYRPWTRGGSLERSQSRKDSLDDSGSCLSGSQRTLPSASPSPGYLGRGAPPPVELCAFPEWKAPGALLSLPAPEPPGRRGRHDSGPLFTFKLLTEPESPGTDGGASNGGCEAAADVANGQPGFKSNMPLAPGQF

[8] = biological target: Histamine H3 receptor (Homo sapiens) (UniProt Q9Y5N1); experiment: Inhibition of H3 receptor at 10 uM by NIMH PDSP
Chain of Histamine H3 receptor (Homo sapiens) (Q9Y5N1 whole entry): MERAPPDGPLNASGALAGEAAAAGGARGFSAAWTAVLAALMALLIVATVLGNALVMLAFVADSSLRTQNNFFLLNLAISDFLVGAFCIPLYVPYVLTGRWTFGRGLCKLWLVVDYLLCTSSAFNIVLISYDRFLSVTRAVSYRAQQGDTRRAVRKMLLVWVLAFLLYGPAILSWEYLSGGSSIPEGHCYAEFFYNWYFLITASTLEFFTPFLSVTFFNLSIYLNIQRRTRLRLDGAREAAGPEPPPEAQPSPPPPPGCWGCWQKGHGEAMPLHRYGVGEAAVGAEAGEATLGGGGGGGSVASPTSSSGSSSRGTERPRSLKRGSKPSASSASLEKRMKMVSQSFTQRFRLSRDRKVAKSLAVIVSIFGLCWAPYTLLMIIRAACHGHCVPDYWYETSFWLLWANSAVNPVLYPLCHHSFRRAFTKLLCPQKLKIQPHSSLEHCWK

[9] = biological target: Beta-2 adrenergic receptor (Homo sapiens) (UniProt P07550); experiment: Inhibition of beta-2 adrenergic receptor at 10 uM by NIMH PDSP
Chain of Beta-2 adrenergic receptor (Homo sapiens) (P07550 whole entry, looked up): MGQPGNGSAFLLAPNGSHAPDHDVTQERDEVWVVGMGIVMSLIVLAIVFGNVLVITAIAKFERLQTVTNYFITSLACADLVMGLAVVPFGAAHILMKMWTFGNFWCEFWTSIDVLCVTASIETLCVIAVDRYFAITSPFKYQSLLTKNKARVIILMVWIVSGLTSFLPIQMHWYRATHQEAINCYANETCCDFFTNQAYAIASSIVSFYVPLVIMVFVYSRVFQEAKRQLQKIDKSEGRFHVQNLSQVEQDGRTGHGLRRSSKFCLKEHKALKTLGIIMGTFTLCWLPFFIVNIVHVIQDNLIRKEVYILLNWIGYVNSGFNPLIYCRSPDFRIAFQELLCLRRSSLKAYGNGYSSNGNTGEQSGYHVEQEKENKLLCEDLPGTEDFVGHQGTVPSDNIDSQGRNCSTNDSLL

[10] = biological target: 5-hydroxytryptamine receptor 1B (Homo sapiens) (UniProt P28222); experiment: Inhibition of 5-HT1B receptor at 10 uM by NIMH PDSP
Chain of 5-hydroxytryptamine receptor 1B (Homo sapiens) (P28222 whole entry): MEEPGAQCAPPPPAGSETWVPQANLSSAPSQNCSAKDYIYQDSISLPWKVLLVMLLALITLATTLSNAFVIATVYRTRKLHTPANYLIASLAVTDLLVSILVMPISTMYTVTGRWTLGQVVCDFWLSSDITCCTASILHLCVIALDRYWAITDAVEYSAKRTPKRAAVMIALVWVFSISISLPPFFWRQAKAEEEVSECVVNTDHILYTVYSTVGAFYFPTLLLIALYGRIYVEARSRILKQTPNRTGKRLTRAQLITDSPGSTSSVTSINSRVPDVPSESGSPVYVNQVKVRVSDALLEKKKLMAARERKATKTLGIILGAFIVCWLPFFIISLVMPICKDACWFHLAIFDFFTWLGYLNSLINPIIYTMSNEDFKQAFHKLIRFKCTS

[11] = biological target: Beta-1 adrenergic receptor (Homo sapiens) (UniProt P08588); experiment: Inhibition of beta-1 adrenergic receptor at 10 uM by NIMH PDSP
Chain of Beta-1 adrenergic receptor (Homo sapiens) (P08588 whole entry, looked up): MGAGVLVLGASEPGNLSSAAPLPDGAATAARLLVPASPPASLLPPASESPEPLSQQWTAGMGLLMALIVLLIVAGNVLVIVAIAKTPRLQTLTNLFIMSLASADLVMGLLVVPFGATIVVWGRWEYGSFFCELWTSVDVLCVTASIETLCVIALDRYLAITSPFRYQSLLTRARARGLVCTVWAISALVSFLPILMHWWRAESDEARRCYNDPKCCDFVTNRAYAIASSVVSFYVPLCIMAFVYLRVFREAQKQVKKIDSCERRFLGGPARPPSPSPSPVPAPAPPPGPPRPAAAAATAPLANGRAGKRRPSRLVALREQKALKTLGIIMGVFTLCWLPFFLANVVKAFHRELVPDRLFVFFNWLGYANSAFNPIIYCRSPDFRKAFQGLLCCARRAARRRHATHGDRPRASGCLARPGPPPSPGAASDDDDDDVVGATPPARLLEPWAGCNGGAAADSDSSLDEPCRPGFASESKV

[12] = biological target: 5-hydroxytryptamine receptor 2B (Homo sapiens) (UniProt P41595); experiment: Inhibition of 5-HT2B receptor at 10 uM by NIMH PDSP
[13] = biological target: T4, 5-hydroxytryptamine receptor 3A (Homo sapiens) (UniProt P46098); experiment: Inhibition of 5-HT3 receptor at 10 uM by NIMH PDSP
T4 sequence (whole entry): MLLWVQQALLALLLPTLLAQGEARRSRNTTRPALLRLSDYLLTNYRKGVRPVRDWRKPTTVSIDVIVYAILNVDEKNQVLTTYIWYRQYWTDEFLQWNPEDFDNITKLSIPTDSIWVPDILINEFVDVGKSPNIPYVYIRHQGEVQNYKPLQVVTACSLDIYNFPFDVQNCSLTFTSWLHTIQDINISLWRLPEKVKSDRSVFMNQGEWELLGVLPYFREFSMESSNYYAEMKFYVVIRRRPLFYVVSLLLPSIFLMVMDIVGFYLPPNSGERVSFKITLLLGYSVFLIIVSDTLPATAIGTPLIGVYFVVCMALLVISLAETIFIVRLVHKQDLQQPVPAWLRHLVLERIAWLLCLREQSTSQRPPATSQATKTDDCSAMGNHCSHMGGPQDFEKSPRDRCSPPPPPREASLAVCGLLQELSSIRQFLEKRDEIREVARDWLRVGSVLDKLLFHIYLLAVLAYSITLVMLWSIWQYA

[14] = biological target: Mu-type opioid receptor (Homo sapiens) (UniProt P35372); experiment: Inhibition of mu opioid receptor at 10 uM by NIMH PDSP
Chain of Mu-type opioid receptor (Homo sapiens) (P35372 whole entry): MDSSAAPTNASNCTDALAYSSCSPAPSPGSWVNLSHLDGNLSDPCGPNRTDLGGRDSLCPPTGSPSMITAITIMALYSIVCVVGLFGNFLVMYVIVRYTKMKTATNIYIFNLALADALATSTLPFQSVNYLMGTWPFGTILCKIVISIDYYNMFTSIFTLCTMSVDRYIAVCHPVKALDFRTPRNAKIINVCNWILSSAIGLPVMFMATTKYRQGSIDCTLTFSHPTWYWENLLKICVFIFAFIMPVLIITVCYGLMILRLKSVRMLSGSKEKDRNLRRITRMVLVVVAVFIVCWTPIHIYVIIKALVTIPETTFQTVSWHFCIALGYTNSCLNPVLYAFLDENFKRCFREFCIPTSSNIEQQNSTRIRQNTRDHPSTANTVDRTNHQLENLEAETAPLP

[15] = biological target: Histamine H2 receptor (Homo sapiens) (UniProt P25021); experiment: Inhibition of H2 receptor at 10 uM by NIMH PDSP
[16] = biological target: 5-hydroxytryptamine receptor 1D (Homo sapiens) (UniProt P28221); experiment: Inhibition of 5-HT1D receptor at 10 uM by NIMH PDSP
[17] = biological target: Sodium-dependent noradrenaline transporter (Homo sapiens, UniProt P23975); experiment: Inhibition of NET transporter by NIMH PDSP
Chain of Sodium-dependent noradrenaline transporter (P23975 whole entry): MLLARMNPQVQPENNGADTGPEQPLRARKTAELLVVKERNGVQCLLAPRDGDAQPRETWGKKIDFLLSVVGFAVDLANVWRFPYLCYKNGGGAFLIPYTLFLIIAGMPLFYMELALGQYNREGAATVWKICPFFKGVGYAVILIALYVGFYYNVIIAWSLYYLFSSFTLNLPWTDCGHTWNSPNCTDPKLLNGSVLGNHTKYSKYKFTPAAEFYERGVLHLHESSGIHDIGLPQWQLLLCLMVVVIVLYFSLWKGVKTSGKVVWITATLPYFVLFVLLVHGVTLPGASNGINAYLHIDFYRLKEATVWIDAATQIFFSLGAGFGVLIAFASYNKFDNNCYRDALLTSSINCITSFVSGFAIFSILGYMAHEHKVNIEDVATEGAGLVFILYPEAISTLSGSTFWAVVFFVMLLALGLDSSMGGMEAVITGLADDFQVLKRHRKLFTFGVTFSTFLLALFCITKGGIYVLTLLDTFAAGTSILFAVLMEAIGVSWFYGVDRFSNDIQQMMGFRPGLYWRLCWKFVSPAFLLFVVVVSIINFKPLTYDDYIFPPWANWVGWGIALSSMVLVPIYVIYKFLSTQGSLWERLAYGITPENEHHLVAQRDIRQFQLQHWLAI

| SMILES | inhibition [1] | inhibition [2] | inhibition (D(1A) dopamine receptor) | inhibition [3] | inhibition [4] | inhibition [5] | inhibition [6] | inhibition [7] | inhibition [8] | inhibition [9] | inhibition [10] | inhibition [11] | inhibition [12] | inhibition [13] | inhibition [14] | inhibition [15] | inhibition [16] | Ki [17] |
| --- | --- | --- | --- | --- | --- | --- | --- | --- | --- | --- | --- | --- | --- | --- | --- | --- | --- | --- |
| OC12CC3CC(CC(C3)N1Cc1ccccc1)C2 (racemic) | < 50% | < 50% | < 50% | < 50% | < 50% | < 50% | < 50% | < 50% | < 50% | < 50% | < 50% | < 50% | < 50% | < 50% | < 50% | < 50% | < 50% | – |
| c1ccc(CN2C3CC4CC(C3)CC2C4)cc1 | < 50% | < 50% | < 50% | < 50% | < 50% | < 50% | < 50% | < 50% | < 50% | < 50% | < 50% | < 50% | < 50% | < 50% | < 50% | < 50% | < 50% | > 10 µM |
| Fc1cccc(CN2C3CC4CC(C3)CC2C4)c1 | < 50% | < 50% | – | < 50% | < 50% | < 50% | < 50% | < 50% | < 50% | < 50% | < 50% | < 50% | < 50% | < 50% | < 50% | < 50% | < 50% | > 10 µM |
| OC12CC3CC(CC(C3)N1Cc1cccc(F)c1)C2 (racemic) | < 50% | < 50% | < 50% | < 50% | < 50% | < 50% | < 50% | < 50% | < 50% | < 50% | < 50% | < 50% | < 50% | < 50% | < 50% | < 50% | < 50% | > 10 µM |
